Patent US6682931B2, “Recovering cryopreserved conifer embryogenic cultures” (MeadWestvaco Corporation, priority 1999, dated 2004)
Marks after values point to notes of the source that are not given here.

Columns and labels:
Format in all cases: cell-based
[1] = system: pitch×loblolly pine interspecies hybrid cell lines (AA-24, Q-01, Q-39); test: Mean culture fresh weight of embryogenic cultures retrieved from cryopreservation on post-cryopreservation recovery medium (Example 3)
From the text: (§1) Five different pine embryogenic cell lines chosen at random from a long-term cryogenic storage bank were initiated, grown as liquid embryogenic suspension cultures, and cryopreserved via the methods described in Examples 1 and 2. The five cell lines included: one pitch×loblolly pine interspecies hybrid cell line (AA-24) and four loblolly pine cell lines (G-05, K-12, E-117 and O-72). Also, two additional pitch×loblolly pine F1 hybrid cell lines (Q-01 and Q-39) were initiated, grown as liquid embryogenic suspension cultures, and cryopreserved via the methods described in Examples 1 and 2 except that the initiation and maintenance media contained 10.0 mg/l of ABA (as taught in U.S. Pat. No. 5,856,191). The seven cell lines were retrieved from cryogenic storage, thawed, and transferred, via the procedure described in Example 2. Each cell line was subjected to three post-cryopreservation medium treatments. The first treatment was a control (i.e., DCR1 medium without ABA), the second treatment was DCR1 medium with 10 mg/l of ABA, and the third treatment was DCR1 medium with 30 mg/l of ABA. There were four plates (each derived from an individual cryogenic vial) per treatment and cell line.
(§2) The embryogenic cultures on membranes were transferred after 24 hours from the temporary recovery medium onto the post-cryopreservation medium and thereafter, every 14 days to a new plate of the same post-cryopreservation medium. The culture environment during post-cryopreservation recovery and growth was 23° C. in the dark. At 28 days after retrieval from cryogenic storage the final fresh weight of the proliferating embryogenic culture was measured. The data were analyzed using the SAS GLM ANOVA statistical software program (Release 6.12 commercially available from the SAS Institute, Inc.), and the results are shown in Table III below.

[2] = system: loblolly pine cell lines (G-05, K-12, E-117 and O-72); test: as above; conditions: for % Increase of average culture fresh weight over control without ABA: all seven cell lines; for Mean Culture Fresh Weight, average of cell lines: average of all seven cell lines (loblolly and pitch×loblolly hybrid); for Mean Culture Fresh Weight: 28 days after retrieval
From the text: as §1, §2

[3] = system: loblolly pine (Pinus taeda) embryogenic cell lines; test: Percent increase in fresh weight of pine embryogenic cell lines retrieved from cryopreservation on post-cryopreservation recovery medium (Examples 1 and 2); conditions: DCR1 + 30 mg/l ABA, 26 days after retrieval
[4] = system: loblolly pine (Pinus taeda) embryogenic cell lines; test: as above; conditions: for Additional Culture Growth on DCR1 + ABA: 30 mg/l ABA vs medium without ABA
Experimental: Each embryogenic culture was cryopreserved as follows. Embryogenic tissue (7 to 14 days since the last subculture) was dispersed in liquid DCR1 medium (the DCR1 medium of Table I without the GELRITE) which contained 0.4 molar sorbitol as described in U.S. Pat. No. 5,506,136. The amount of embryogenic tissue used was sufficient to result in a 40% suspension (i.e., 4 ml volume of embryogenic tissue added to 6 ml of liquid medium). An Erlenmeyer flask containing the suspension was incubated for 24 hours in the dark on a gyrotory shaker (100 rpm), and then placed on ice. Five aliquots of the cryoprotective chemical dimethyl sulfoxide (DMSO) were aseptically added to the suspension to bring the final concentration of DMSO to 10% (vol/vol). One milliliter aliquots of the suspension containing DMSO were then transferred to 2 ml NALGENE® cryogenic vials (manufactured by the Nalge Co.), placed in programmable freezer (Model 9000 manufactured by Gordinier Electronics) and cooled to −35° C. at a rate of 0.33° C. per minute. The cultures were cryopreserved by immersing the cryogenic vials in liquid nitrogen inside a cryogenic storage tank (Model #CY50945 manufactured by Thermolyne, Inc.). The cultures remained in cryogenic storage for at least 36 months prior to retrieval.
The cryogenic vials were retrieved from the cryogenic storage tank and placed in 44° C. water until the ice crystals in the frozen embryogenic cultures were melted. The thawed culture from each cryogenic vial was aseptically pipetted and dispensed onto a sterile 7 cm×7 cm NITEX nylon 35 μm pore size membrane (commercially available from Sefar, Inc.) which had been placed on top of two sterile filter papers (Whatman no. 2 commercially available from Whatman International Ltd.) to absorb excess liquid from the culture and membrane. Each nylon membrane containing embryogenic culture was then transferred to a DCR1 medium which served as a temporary recovery medium for 24 hours in order to lower the concentration of cryoprotective chemicals and osmotic agents contained in the culture.
Each nylon membrane containing embryogenic tissue was then transferred to one of two post-cryopreservation medium treatments. One treatment was DCR1 medium without ABA. The other treatment was DCR1 medium with 30 mg/l of ABA. The initial fresh weight (FW0) of the embryogenic tissue was measured aseptically at this time. There were 3 plates (each derived from an individual cryogenic vial) per treatment and cell line. The embryogenic cultures on membranes were transferred after 24 hours, and thereafter, every 14 days to a new plate of the same medium. The culture environment during post-cryopreservation recovery and growth was 23° C. in the dark. At 25 days after retrieval from cryogenic storage the final fresh weight (FWF) of the proliferating embryogenic culture was measured. The growth of the embryogenic tissue during the post-cryopreservation treatments was calculated as a percent increase in fresh weight relative to the initial fresh weight as follows: ((FWF−FW0)/FW0)*100.
Each cell line was cryopreserved as follows. The liquid suspension cultures (7 days since the last subculture) were aseptically centrifuged at 1500 rpm for 10 minutes (400 g-force) to separate the embryogenic tissue from the liquid medium. The supernatant medium was removed from the embryogenic tissue. To the remaining volume of centrifuged embryogenic tissue, was added an equal volume of liquid DCR1 medium containing 0.8 molar sorbitol, so that the final sorbitol concentration was 0.4 molar. An Erlenmeyer flasks containing each suspension was incubated for 24 hours in the dark on a gyrotory shaker (100 rpm), and then placed on ice. The cryoprotective chemical DMSO was added to the chilled cultures at one time to bring the final concentration of DMSO to 10% (vol/vol). […]

## CC1=CC(=O)CC(C)(C)[C@@]1(O)/C=C/C(C)=C\C(=O)O [ABA, abscisic acid]
[1]; cell line AA-24, 10 mg/l ABA, 28 days after retrieval
  Mean Culture Fresh Weight: 5.22 g
[1]; cell line AA-24, 30 mg/l ABA, 28 days after retrieval
  Mean Culture Fresh Weight: 5.45^a g
[1]; cell line Q-01 (initiated and maintained with 10.0 mg/l ABA), 10 mg/l ABA, 28 days
  Mean Culture Fresh Weight: 2.91^b g
[1]; cell line Q-01 (initiated and maintained with 10.0 mg/l ABA), 30 mg/l ABA, 28 days
  Mean Culture Fresh Weight: 3.81^ab g
[1]; cell line Q-39 (initiated and maintained with 10.0 mg/l ABA), 10 mg/l ABA, 28 days
  Mean Culture Fresh Weight: 0.01 g
[1]; cell line Q-39 (initiated and maintained with 10.0 mg/l ABA), 30 mg/l ABA, 28 days
  Mean Culture Fresh Weight: 0.17 g
[2]; 10 mg/l ABA
  % Increase of average culture fresh weight over control without ABA: 35%
  Mean Culture Fresh Weight, average of cell lines: 1.86 g
[2]; 30 mg/l ABA
  % Increase of average culture fresh weight over control without ABA: 52%^a
  Mean Culture Fresh Weight, average of cell lines: 2.10^a g
[2]; cell line E-117, 10 mg/l ABA
  Mean Culture Fresh Weight: 0.38^a g
[2]; cell line E-117, 30 mg/l ABA
  Mean Culture Fresh Weight: 0.33 g
[2]; cell line G-05, 10 mg/l ABA
  Mean fresh weight higher than control treatment without ABA: 52%
  Mean Culture Fresh Weight: 3.82^a g
[2]; cell line G-05, 30 mg/l ABA
  Mean fresh weight higher than control treatment without ABA: 48%
  Mean Culture Fresh Weight: 3.73 g
[2]; cell line K-12, 10 mg/l ABA
  Mean Culture Fresh Weight: 0.55 g
[2]; cell line K-12, 30 mg/l ABA
  Mean Culture Fresh Weight: 1.09^a g
[2]; cell line O-72, 10 mg/l ABA
  Mean Culture Fresh Weight: 0.09 g
[2]; cell line O-72, 30 mg/l ABA
  Mean Culture Fresh Weight: 0.10^a g
[3]; cell line B1
  Average Percent Increase in Fresh Weight: 195%
[3]; cell line B2
  Average Percent Increase in Fresh Weight: 29%
[3]; cell line B4
  Average Percent Increase in Fresh Weight: 34%
[4]; Average and Increase lines, all ten cell lines, 30 mg/l ABA
  Additional Culture Growth on DCR1 + ABA, overall: yes
[4]; all ten cell lines, 30 mg/l ABA
  Increase of overall average percent increase in fresh weight on medium with ABA compared to medium without ABA: 70%
[4]; average of cell lines A1-A6 and B1-B4, DCR1 + 30 mg/l ABA
  Average Percent Increase in Fresh Weight, average of all ten cell lines: 2469%
[4]; cell line A1
  Additional Culture Growth on DCR1 + ABA: yes
[4]; cell line A1, DCR1 + 30 mg/l ABA, 25 days after retrieval
  Average Percent Increase in Fresh Weight: 270%
[4]; cell line A2
  Additional Culture Growth on DCR1 + ABA: yes
[4]; cell line A2, DCR1 + 30 mg/l ABA, 25 days after retrieval
  Average Percent Increase in Fresh Weight: 7484%
[4]; cell line A3
  Additional Culture Growth on DCR1 + ABA: yes
[4]; cell line A3, DCR1 + 30 mg/l ABA, 25 days after retrieval
  Average Percent Increase in Fresh Weight: 4065%
[4]; cell line A3, medium with ABA (30 mg/l)
  Total fresh weight of embryogenic tissue from three cryogenic vials: 5.17 grams
[4]; cell line A4
  Additional Culture Growth on DCR1 + ABA: yes
[4]; cell line A4, DCR1 + 30 mg/l ABA, 25 days after retrieval
  Average Percent Increase in Fresh Weight: 1652%
[4]; cell line A5
  Additional Culture Growth on DCR1 + ABA: yes
[4]; cell line A5, DCR1 + 30 mg/l ABA, 25 days after retrieval
  Average Percent Increase in Fresh Weight: 6479%
[4]; cell line A6
  Additional Culture Growth on DCR1 + ABA: yes
[4]; cell line A6, DCR1 + 30 mg/l ABA, 25 days after retrieval
  Average Percent Increase in Fresh Weight: 1221%
[4]; cell line B1
  Additional Culture Growth on DCR1 + ABA: no
[4]; cell line B2
  Additional Culture Growth on DCR1 + ABA: yes
[4]; cell line B3
  Additional Culture Growth on DCR1 + ABA: yes
[4]; cell line B3, DCR1 + 30 mg/l ABA, 26 days after retrieval
  Average Percent Increase in Fresh Weight: 3259%
[4]; cell line B4
  Additional Culture Growth on DCR1 + ABA: yes
